Test results published in US12298308B2, “Neoadjuvant chemotherapy induces breast cancer metastasis through a TMEM-mediated mechanism” (Albert Einstein College of Medicine, priority 2017, dated 2025).

What was measured:
TMEM [1] = assay: TMEM score by triple-stain immunohistochemistry in mouse breast tumors; format: in vivo
Description: This hypothesis was investigated in the following breast carcinoma models: (i) transgenic MMTV-PyMT mice bearing spontaneous breast tumors, (ii) FVB mice transplanted orthotopically with tumors from MMTV-PyMT donors, and (iii) two patient-derived xenografts (PDX), HT17 and HT33, developed previously in our laboratory (31). […] Treatment of all groups began at the early carcinoma stage (tumor size of ˜0.3 cm) when there is minimal or absent necrosis. It was decided to work with the early-stage PyMT mouse mammary carcinoma model because it more accurately reflects clinically relevant scenarios where most women present with small tumors of <2 cm (32).
(§1) Drug Administration. The following drugs were administered in mice: Paclitaxel was given at 10 mg/Kg i.v every 5 days for 2 weeks; Doxorubicin was given at 5 mg/Kg i.v. every 5 days for 2 weeks; Cyclophosphamide was given at 120 mg/Kg i.p. only once; Rebastinib was given at 10 mg/Kg per os, every 3-4 days for 4 weeks.
Animals and Animal Procedures. MMTV-PyMT mice were bred in-house at the Albert Einstein College of Medicine (AECOM). Generation of MMTV-PyMT Mena^−/− has been described previously (28). CFP- or Dendra2-labeled mammary carcinoma cells were generated on the FVB background by co-injection of Tg(MMTV-iCRE)1jwp together with Tg(PCAG-loxp-CATstop-loxp-CFP) or Tg(loxP-stop-loxP-PDendra2)jwp plasmids, respectively, by conventional methods in the Albert Einstein Transgenic Mouse Facility. All syngeneic transplantation models were generated through orthotopic transplantation of 1 mm×1 mm tumor chunks, using tumors of 1 cm-diameter from 12-16-week old MMTV-PyMT mena−/− or mena+/+ donor mice into 5-6 week-old FVB recipients. Tumor chunks were implanted on the fourth mammary pad on the left side. The generation of the ER^− HT17 and ER^+ HT33 patient-derived xenografts has been described previously (31). Animal handling and associated procedures were approved by the Institutional Animal Care and Use Committee (IACUC). Additional information is detailed in Supplementary Methods.
Histology and TMEM Immunohistochemistry. Breast tumors and lungs were isolated, rinsed in PBS, fixed in 10% neutral buffered formalin for 48 hours, dehydrated and embedded in paraffin. Sections (5 μm) were stained with H & E or TMEM triple-stain immunohistochemistry, as previously described (3).

TMEM [2] = assay: Intravital imaging of TMEM-dependent vascular permeability (bursting); format: in vivo, mouse
Description: Paclitaxel Induces TMEM-Dependent Vascular Permeability in Breast Tumors—Given that chemotherapy treatment may affect blood vessel dynamics by inducing angiogenesis (9, 11-13, 35-37), intravital imaging (IVI) (FIG. 2A) was used to investigate whether neoadjuvant paclitaxel induces TMEM-dependent (localized) or TMEM-independent (more universal) blood vessel leakage. […] As also reported previously (1), we never observed any bursting incidents without juxtaposition to a clearly defined TMEM site. Bursting was documented by the accumulation of Dextran-TMR signal over time around an active TMEM site, and no such accumulation was observed away from TMEM (FIGS. 2B-C). The entire time-lapse of these was recorded in videos, respectively. The intensity values from all TMEM-mediated bursting incidents observed in paclitaxel-treated mice were averaged and plotted over the entire time of bursting activity (FIG. 2D), which confirmed the transient nature of paclitaxel-induced TMEM-dependent vascular permeability.
as §1
Intravital Imaging. Intravital imaging was performed using a custom-built two-laser multiphoton microscope, as previously described (57). Mice were anesthetized using 0.75-2.5% isofluorane, depilated. A skin flap procedure, previously developed (58), was performed by exposing the 4th or 5th mammary fat pad. Given the early stage of carcinoma and small tumor size, this necessitated the development of a custom fixturing technique where the exposed tissue was stabilized by affixing the edge of a 10-mm window fitted with an 8-mm clear aperture respectively with cyanoacrylate. The mouse was then placed on a fixturing plate, fitted to the respective window, on the microscope xy stage and imaging was performed in the center of the window away from the glue. The animal was placed in a heated chamber, AirTherm ATX forced air heater (WPI Inc.), maintained at physiologic temperature during the course of imaging, and supplemented with 50-100 uL of PBS per hour via the tail vein catheter. As previously described (1), three milligrams of 155-kDa TMR-dextran (Sigma) were administered via the catheter to visualize the vasculature. All images were reconstructed and analyzed in ImageJ (59), as described in Supplementary Methods.

circulating tumor cells = assay: Circulating tumor cells per mL of blood; format: in vivo, mouse
Method: as §1
Circulating Tumor Cells. Mice were anesthetized with 3.5-4.5% isoflurane, and blood was taken from the right ventricle by heart puncture, using 25G needles coated with heparin. Erythrocytes were lysed, using 10 ml of 1×RBC lysis buffer (multi-species, eBioscience). Cancer cells were quantified, as previously described (31, 60).

Mena = Mena isoform gene expression by qRT-PCR on FFPE tumors; format: in vivo, mouse
Description: To test this hypothesis, qRT-PCR analysis was first performed for total Mena (panMena), Mena11a and Mena^INV on formalin-fixed paraffin-embedded (FFPE) tumors from all mouse models. […] As shown in the specific Mena^INV IF, the pattern of Mena^INV expression in PyMT mice was heterogeneous (FIG. 4F), consistent with previous observations (40). […] In addition, there was an inverse correlation for the anti-metastatic Mena11a (p<0.01, […]).
Gene Expression Analysis. Total RNA was extracted from formalin-fixed paraffin-embedded (FFPE) tissues using deparaffinization solution (Qiagen) and RNeasy FFPE Kit (Qiagen), followed by DNase treatment. An RT-PCR method SYBR Green (Qiagen) was used to measure expression levels of total Mena (PanMena), as well as of the specific Mena isoforms, Mena11a and Mena^INV, as described (29), with slight modifications, as detailed in Supplementary Methods. Mena^Calc expression has been previously defined as the expression level of all Mena isoforms combined after subtraction of Mena 11a from PanMena (2).

[3] = single agent vs vehicle, PyMT-transplantation and HT17 xenograft

SMILES: CC(=O)O[C@H]1C(=O)[C@@]2(C)[C@H]([C@H](OC(=O)c3ccccc3)[C@]3(O)C[C@H](OC(=O)[C@H](O)[C@@H](NC(=O)c4ccccc4)c4ccccc4)C(C)=C1C3(C)C)[C@]1(OC(C)=O)CO[C@@H]1C[C@@H]2O [paclitaxel]
- TMEM score, fold higher compared to non-treated controls (TMEM [1]; all experimental models tested, 10 mg/Kg every five days, three times, p<0.001): 2- to 3 fold
- overall TMEM score (TMEM assembly) (TMEM [1]; [3]): significant increases
- generalized blood vessel leakage of 155-KDa dextran into the extravascular space (TMEM [2]; intravital imaging, paclitaxel-treated mice): did not demonstrate generalized blood vessel leakage
- frequency of bursting (TMEM [2]; vs vehicle control): increased
- incidence of bursting (at least 1 bursting event in a ~4.5-hour imaging session) (TMEM [2]; vs vehicle control): increased
- number of CTCs in the blood (circulating tumor cells; Mena^-/- PyMT-CFP transplants): failed to boost
- increase in circulating tumor cells (CTCs) (circulating tumor cells; all experimental models examined, p<0.05): at least 2 fold
- number of CTCs (TMEM activity) (circulating tumor cells; [3]): significant increases
- expression of Mena11a (Mena): not that of the anti-metastatic Mena11a
- expression of Mena^Calc (Mena; p<0.01): significantly increased
- expression of Mena^INV (Mena; p<0.01): significantly increased
- expression of PanMena (Mena; p<0.01): significantly increased
